The numbers were not newly measured in patent publication US20220211847A1, “COMBINATION OF MONALIZUMAB, DURVALUMAB, CHEMOTHERAPY AND BEVACIZUMAB OR CETUXIMAB FOR THE TREATMENT OF COLORECTAL CANCER” (MEDIMMUNE LIMITED, priority 2019, published 2022), which cites them from elsewhere.

In one series the test system is CRC. Conditions: similar population.
In series [1] the test system is unresectable metastatic disease (mCRC). Conditions: added to oxaliplatin-based regimens.
Series [2] deals with MSI high CRCs and MSS CRCs.
In series [3] the test system is microsatellite instability-high CRC or mismatch repair deficient CRC. To be noted: monotherapy; MSI-high or mismatch repair deficient CRC.

Read-outs that look alike come from different tables or passages of the source.

For `CNC(=O)c1cc(Oc2ccc(NC(=O)Nc3ccc(Cl)c(C(F)(F)F)c3)c(F)c2)ccn1` [regorafenib], the “median OS” value with CRC is recorded as 6.4 months.
On to “bevacizumab: recombinant humanized monoclonal antibody directed against human vascular endothelial growth factor (VEGF)”, for which the “increase in Progression-free survival (PFS) compared with regimens without bevacizumab” value in series [1] is on record as 1.4 months. For the same compound, in series [1] (not statistically significant), the “difference in Overall Survival (OS)” value is given as 1.4 months.
As for “pembrolizumab: humanized monoclonal IgG4 antibody directed against human cell surface receptor PD-1”, the “objective response rate (ORR)” value in series [2] (10 mg/kg Q2W, microsatellite proficient CRC) was 0%. For the same compound, the “immune-related objective response rate” value in series [2] (MSI high CRCs) is on record as 40%; in series [2] (MSS CRCs), 0%. In addition, the “immune-related progression free survival rate” value in series [2] (MSI high CRCs) is recorded as 78%; in series [2] (MSS CRCs) it was 11%. The “patients who experienced disease progression” value in series [2] (MSI-H CRC) is 1 of 10; in series [2] (MSS CRC), 11/18.
As to nivolumab, the ORR in series [3] is reported as 28%.
